The results in this text go back to patent US20140066410A1, “INHIBITORS OF BROMODOMAINS AS MODULATORS OF GENE EXPRESSION” (ICAHN SCHOOL OF MEDICINE AT MOUNT SINAI, priority 2011, published 2014).

Molecules are shown by their SMILES. Where two headings read alike, the source gives them in different places.

For one test, the target named is T1, PCAF (Homo sapiens, UniProt Q92831).
T1 sequence (Q92831 723-827 limits assumed): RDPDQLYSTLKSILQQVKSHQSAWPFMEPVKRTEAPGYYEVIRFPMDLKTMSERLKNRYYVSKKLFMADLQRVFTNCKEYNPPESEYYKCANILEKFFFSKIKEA
Put plainly: Bromodomain binding affinity (tryptophan fluorescence binding assay). How it is done:
(§1) Monitoring change of intrinsic tryptophan fluorescence of a protein induced by ligand binding can be used to determine ligand binding affinity (KD). This assay was used to assess ligand binding to the CBP BRD and ischemin binding to the BRDs from other transcription proteins as follows. The chemical ligands were prepared at 500-850 μM in the PBS buffer. Their serial dilutions by a factor of 1.5 in a 384-wells black plate were carried out using a Tecan EVO200 liquid handler down to a concentration of 0.5 nM. Protein was added to the compounds to a final concentration in each well of 5 μM. Tryptophan fluorescence of the protein was measured (with excitation set at 280 nm, emission at 350 nm) on a Tecan Safire2 reader. Inner filter correction was introduced to take into account the possible intrinsic fluorescence of the compound. […] KD was calculated based on the curve fitting.

The target of another test is CBP BRD (Homo sapiens, UniProt Q92793). The test is described as above. How it is done: as §1
The test system of another test is melanoma cells. Put plainly: Melanoma cell proliferation in vitro. The settings on record: FIG. 6, FIG. 7. The format is cell-based.
Another test concerns melanocytes. Put plainly: Proliferation of normal melanocytes. To be noted: in vitro; FIG. 6. Format: cell-based.
Another test concerns NF-κB. Put plainly: TNFα-induced NF-kB activation, luciferase in NF-kB response element HEK293 cells. Format: cell-based. The settings on record: Homo sapiens; NF-κB-response element stabilized HEK293 cells; read-out: IC50, inhibition of TNFα-induced activation of NF-κB. How it is done:
FIG. 5. […] A. NF-kB activation by TNFa (10 ng/mL). HEK 293 cells ([…]) in a 24-well plate were stabilized with NF-kB response element (NF-kB_RE) was treated with TNF. Twenty-four hours after the treatment, the cells were harvested and lysed, and luciferase activity was determined.
Dysregulation of macrophages and T cell functions trigger inflammatory responses contributing to IBD progression. Given its pro-inflammatory functions, NF-κB inhibition has anti-inflammatory effects, as shown by inhibition of IKK activity, which prevents phoshorylation and release of IκBα from NF-κB.

A further test addresses BRD4-1 (Homo sapiens, UniProt O60885). Put plainly: Bromodomain binding affinity (tryptophan fluorescence binding assay). How it is done:
as §1

The target of a further test is BRD4-2 (Homo sapiens, UniProt O60885). Described as above. To be noted: Table 4; read-out: BrD4-2 (μM), bromodomain binding. How it is done: as §1
[1] abbreviates: Table 4, read-out: PCAF (μM), bromodomain binding.
[2] abbreviates: Table 4, read-out: CBP (μM), bromodomain binding.

In general, IC50 refers to the concentration needed to halve the response being measured.

CBP BRD, sequence (Q92793 1085-1192 limits assumed): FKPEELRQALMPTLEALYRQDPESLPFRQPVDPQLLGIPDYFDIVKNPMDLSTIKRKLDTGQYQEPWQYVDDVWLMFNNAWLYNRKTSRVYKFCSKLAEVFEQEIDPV

Turning to `Cc1cc(/N=N/c2ccc(S(=O)(=O)Nc3ccccn3)cc2)c(N)cc1O` [MS0129436], the Kd on PCAF (setting [1]) amounted to 6.8 µM; on PCAF (Table 5, read-out: PCAF) it was 8.6 µM; on CBP BRD (setting [2]), 14 µM; on CBP BRD (Table 5, read-out: CBP) it was 14 µM. Also, the “Inhibition of melanoma cell proliferation” value with melanoma cells is listed as “inhibits proliferation”. Further, the “Effect on normal melanocytes” value in the test with melanocytes was “no effect”. Besides, the IC50 in the test with NF-κB stood at 0.057 µM.

With `O=C(O)c1cc(/N=N/c2ccc(S(=O)(=O)Nc3ccccn3)cc2)ccc1O` [Sulfasalazine (MS0123028), Sulfasalazine, reference compound], the Kd was 54 µM on BRD4-1 (Table 4, read-out: BrD4-1 (μM), bromodomain binding); 54 µM at BRD4-1 (Table 5, read-out: BrD4-1); 88 µM at PCAF (setting [1]); 88 µM on PCAF (Table 5, read-out: PCAF); 82 µM at CBP BRD (setting [2]); 82 µM at CBP BRD (Table 5, read-out: CBP). Besides, at BRD4-2, the Kd came to 54 µM. Besides, in the test with NF-κB, the 50% inhibitory concentration (IC50) was 0.22 µM.
